Measured values as given in patent publication US20190142881A1, “BACTERIOPHAGE COMPOSITIONS AND USES THEREOF” (priority 2016, published 2019).
≈ marks a conversion by molar mass, not a printed value. Where two headings read alike, the source gives them in different places.

Columns and labels:
strain PA01 ΔoprM = experiment: Minimum inhibitory concentration (eTest strip) on knockout PA01 ΔoprM; assay type: cell-based; settings: Pseudomonas aeruginosa
Method: (§1) Bacterial strains were grown overnight at 37° C. as described above. A 200 μL sample of the culture was then spread onto an LB agar plate, and allowed to dry for 10 minutes, followed by application of an eTestStrip (BioMerieux) for a test antibiotic. […] Each strain was tested in triplicate for each antibiotic.
(§2) The effects of phage resistance on sensitivity to the four drugs was tested in replicated assays with PA01 and PA14, as well as with three environmental strains (PAN, 1607, 1845) and three clinical isolates (PAPS, PASk, PADFU). In these assays, the phage-OMKO1 resistant strain was either a knockout mutant (ΔoprM derived from PA01), or an independently derived spontaneous mutant of the associated parental strain.

[1] = test system: strain ΔmexR (derived from PA01); experiment: Minimum inhibitory concentration (eTest strip) on control knockout ΔmexR; assay type: cell-based; settings: Pseudomonas aeruginosa, average ± SD, phage-sensitive, over-expresses Mex systems
Method: as §1
As a control for transposon insertion, strain ΔmexR, which was also derived from PA01, was examined. mexR, the repressor of MexAB-OprM and MexXY-OprM operons should not negatively alter phage sensitivity.

[2] = test system: P. aeruginosa isolated from the patient, susceptible to phage OMKO1; experiment: MIC by eTest strip, patient isolate before phage exposure; assay type: cell-based, Pseudomonas aeruginosa
Method: as §1
(§3) P. aeruginosa isolated from the patient was subjected to Deep Sequencing (Next Generation Sequencing) on the Illumina HiSeq 2000 platform to confirm species identity and presence of genes known to be associated with efflux-pump mechanisms for resistance to antibiotics. Furthermore, a trade-off between phage OMKO1 sensitivity and antibiotic susceptibility was confirmed as per methods disclosed elsewhere herein (FIG. 5). Phage OMKO1 was sequenced also on the HiSeq 2000 platform and found to be in the PhiKZ-like virus genus.

[3] = test system: P. aeruginosa isolated from the patient, resistant to phage OMKO1; experiment: MIC by eTest strip, patient isolate after evolved resistance to phage OMKO1; assay type: cell-based, Pseudomonas aeruginosa
Method: (§4) Phage OMKO1 was amplified on P. aeruginosa in liquid culture in conditions identical to the Serial passage assays. Following 12 hours of amplification, 100 μl of culture was plated on LB agar and incubated for 12 hours. Individual colony-forming units (CFUs) were then collected, and verified to be phage resistant by classic ‘spot tests’ (i.e., 10^7 PFU of phage OMKO1 was pipetted onto a lawn of each bacterial isolate to test whether the phage was capable of visibly clearing the lawn [indicating bacterial sensitivity to phage] versus incapable of clearing the lawn [indicating bacterial resistance to phage]).
as §1, §3

[4] = test system: 72-hour-old P. aeruginosa biofilms; experiment: Biofilm elimination assays on prosthetic materials; settings: single agent (antibiotics at 2×MIC)
[5] = test system: environmental and clinical P. aeruginosa strains; experiment: MIC trade-off assay, phage-resistant mutants of environmental and clinical strains; assay type: cell-based, Pseudomonas aeruginosa; settings: majority of outcomes showing statistical significance
[6] = test system: environmental isolates (PAN, 1607, 1845); experiment: MIC trade-off assay, phage-resistant mutants of environmental isolates; assay type: cell-based, Pseudomonas aeruginosa; settings: phage-resistant mutant versus parental strain
Method: as §4, §1, §2

[7] = Pseudomonas aeruginosa, read-out: MIC
[8] = Dacron sections, 24 h treatment, regrowth OD600

Question: For `O=C(O)c1cn(C2CC2)c2cc(N3CCNCC3)c(F)cc2c1=O` [CIP, Ciprofloxacin], which MIC (strain PA01 ΔoprM) is on record?
Answer: 0.016 µg/mL (≈ 0.0483 µM)

Question: What about the MIC [1] of the same molecule?
Answer: 32 µg/mL (≈ 96.6 µM)

Question: What about the MIC [2, 7] of the same molecule?
Answer: 1.17 µg/mL (≈ 3.54 µM)

Question: And the MIC ([3]; Pseudomonas aeruginosa)?
Answer: 0.014 µg/mL (≈ 0.0423 µM)

Question: And the “elimination of 72-hour biofilms” value [4, 8]?
Answer: Neither ciprofloxacin nor ceftazidime at 2×MIC was sufficient to eliminate 72 hour biofilms

Question: And the “elimination of 72-hour biofilms” value ([4]; Gore-Tex sections)?
Answer: unable to remove 72-hour biofilms

Question: What about the “elimination of 72-hour biofilms” value ([4]; felt pieces) of the same molecule?
Answer: neither antibiotic alone significantly removed 72-hour biofilms

Question: What about the “elimination of 72-hour biofilms” value ([4]; polypropylene suture) of the same molecule?
Answer: not by antibiotics at 2×MIC

Question: Which results are given for `CC(C)(O/N=C(\C(=O)N[C@@H]1C(=O)N2C(C(=O)[O-])=C(C[n+]3ccccc3)CS[C@H]12)c1csc(N)n1)C(=O)O` [CAZ, Ceftazidime]?
Answer: MIC (strain PA01 ΔoprM): 0.21 ± 0.144 µg/mL (≈ 0.384 µM); MIC [1]: 1.33 ± 0.035 µg/mL (≈ 2.44 µM); MIC [2, 7]: 1.67 µg/mL (≈ 3.05 µM); MIC ([3]; Pseudomonas aeruginosa): 0.35 µg/mL (≈ 0.64 µM); change in drug sensitivity on phage resistance [5]: greater drug sensitivity; elimination of 72-hour biofilms [4, 8]: Neither ciprofloxacin nor ceftazidime at 2×MIC was sufficient to eliminate 72 hour biofilms; elimination of 72-hour biofilms ([4]; Gore-Tex sections): unable to remove 72-hour biofilms; elimination of 72-hour biofilms ([4]; felt pieces): neither antibiotic alone significantly removed 72-hour biofilms; elimination of 72-hour biofilms ([4]; polypropylene suture): not by antibiotics at 2×MIC

Question: `NC[C@H]1O[C@H](O[C@H]2[C@H](O)[C@@H](O[C@H]3O[C@H](CO)[C@@H](O)[C@H](N)[C@H]3O)[C@H](N)C[C@@H]2N)[C@H](N)C[C@@H]1O` [tobramycin] was tested. Which MIC [2, 7] did it give?
Answer: 11.3 µg/mL (≈ 24.2 µM)

Question: And the MIC ([3]; Pseudomonas aeruginosa)?
Answer: 3.67 µg/mL (≈ 7.84 µM)

Question: How did the MIC (strain PA01 ΔoprM) turn out when `CC[C@H]1OC(=O)[C@H](C)[C@@H](O[C@H]2C[C@@](C)(OC)[C@@H](O)[C@H](C)O2)[C@H](C)[C@@H](O[C@@H]2O[C@H](C)C[C@H](N(C)C)[C@H]2O)[C@](C)(O)C[C@@H](C)C(=O)[C@H](C)[C@@H](O)[C@]1(C)O` [EM, Erythromycin] was run?
Answer: 4.67 µg/mL (≈ 6.36 µM)

Question: And the MIC [1]?
Answer: 256 ± 0.577 µg/mL (≈ 349 µM)

Question: And the “change in antibiotic sensitivity on resistance to phage OMKO1” value [6]?
Answer: increased sensitivity

Question: What does the source list for gentamicin?
Answer: MIC [2]: 3.7 µg/mL; MIC ([3]; eTest strip, after evolved resistance to phage OMKO1): 0.833 µg/mL

Question: What does the source list for `CN(C)[C@@H]1C(O)=C(C(N)=O)C(=O)[C@@]2(O)C(O)=C3C(=O)c4c(O)cccc4[C@@](C)(O)[C@H]3C[C@@H]12` [TET, Tetracycline]?
Answer: MIC (strain PA01 ΔoprM): 2 µg/mL (≈ 4.5 µM); MIC [1]: 256 µg/mL (≈ 576 µM)
